Results: patent US10294202B2, “Pyrrolidinones as herbicides” (FMC Corporation, priority 2013, dated 2019)

Assays:
kochia [1] = test: Test C pre-/postemergence herbicide test; format: in vivo, Kochia scoparia
From the text: Seeds of plant species selected from blackgrass (Alopecurus myosuroides), ryegrass, Italian (Italian ryegrass, Lolium multiflorum), wheat (winter wheat, Triticum aestivum), galium (catchweed bedstraw, Galium aparine), corn (Zea mays), crabgrass, large (large crabgrass, Digitaria sanguinalis), foxtail, giant (giant foxtail, Setaria faberii), johnsongrass (Sorghum halepense), lambsquarters (Chenopodium album), morningglory (Ipomoea coccinea), nutsedge, yellow (yellow nutsedge, Cyperus esculentus), pigweed (Amaranthus retroflexus), ragweed (common ragweed, Ambrosia elatior), soybean (Glycine max), barnyardgrass (Echinochloa crus-galli), oilseed rape (Brassica napus), waterhemp (common waterhemp, Amaranthus rudis), kochia (Kochia scoparia), oat, wild (wild oat, Avena fatua), surinam grass (Brachiaria decumbens), foxtail, green (green foxtail, Setaria viridis), goosegrass (Eleusine indica), bromegrass, downy (downy bromegrass, Bromus tectorum), nightshade (eastern black nightshade, Solanum ptycanthum), cocklebur (common cocklebur, Xanthium strumarium), cupgrass, woolly (woolly cupgrass, Eriochloa villosa), bermudagrass (Cynodon dactylon), sunflower, (common oilseed sunflower, Helianthus annuus), Russian thistle (Salsola kali) and velvetleaf (Abutilon theophrasti) were planted into a blend of loam soil and sand and treated preemergence with test chemicals formulated in a non-phytotoxic solvent mixture which included a surfactant. At the same time, plants selected from these crop and weed species and also barley (winter barley, Hordeum vulgare), […]), chickweed (common chickweed, Stellaria media), deadnettle (henbit deadnettle, Lamium amplexicaule), and canarygrass (littleseed canarygrass, Phalaris minor) were planted in pots containing Redi-Earth® planting medium (Scotts Company, 14111 Scottslawn Road, Marysville, Ohio 43041) comprising spaghnum peat moss, vermiculite, wetting agent and starter nutrients and treated with postemergence applications of test chemicals formulated in the same manner. Plants ranged in height from 2 to 18 cm (1- to 4-leaf stage) for postemergence treatments. Treated plants and controls were maintained in a greenhouse for 13 to 15 days, after which time all species were compared to controls and visually evaluated. Plant response ratings, summarized in Table C, are based on a scale of 0 to 100 where 0 is no effect and 100 is complete control. A dash (-) response means no test result.

velvetleaf = test: Test A pre-/postemergence herbicide test; format: in vivo, Abutilon theophrasti; settings: for Velvetleaf plant response rating: Preemergence, visual rating on 0 to 100 scale (0 no effect, 100 complete control)
Summary of the method: (§1)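 Both application timings used compounds in a non-phytotoxic solvent plus surfactant. Pre-emergence: soil sprayed directly after seeding into loam/sand. Post-emergence: foliage of 2–10 cm seedlings (1–2 leaves) sprayed. Injury rated ~10 days later, 0–100.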

rice = test: Test C flooded paddy test; format: in vivo, Oryza sativa; settings: Flood
Summary of the method: (§2)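 Ratings reflect visual comparison with controls on a 0–100 scale, where 100 is complete control. Compound is dosed into standing paddy water 3 cm deep over 2-leaf-stage plants, kept in the greenhouse 13 to 15 days.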

ducksalad = test: Test C flooded paddy test; format: in vivo, Heteranthera limosa; settings: Flood
Summary of the method: as §2

galium = test: Test A postemergence herbicide test; format: in vivo, Galium aparine
Summary of the method: (§3)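 Injury was rated visually about 10 days after treatment on a 0 (no effect) to 100 (complete control) scale, compared with untreated plants. Test chemicals were sprayed postemergence onto greenhouse plants 2–10 cm high at one to two leaves, grown in a loam–sand blend.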

kochia [2] = test: Test A pre-/postemergence herbicide test; format: in vivo, Kochia scoparia
Summary of the method: as §1

blackgrass = test: Test A postemergence herbicide test; format: in vivo, Alopecurus myosuroides
Summary of the method: as §3

barnyardgrass = test: Test C flooded paddy test; format: in vivo, Echinochloa crus-galli; settings: Flood
Summary of the method: as §2

[3] = Postemergence, 31 g ai/ha, scale 0 (no effect) to 100 (complete control)
[4] = Postemergence, 62 g ai/ha, scale 0 to 100 (0 no effect, 100 complete control)
[5] = Postemergence, 125 g ai/ha, scale 0 to 100 (0 no effect, 100 complete control)
[6] = Postemergence, 250 g ai/ha, scale 0 to 100 (0 no effect, 100 complete control)
[7] = 125 g ai/ha, scale of 0 to 100 where 0 is no effect and 100 is complete control, 13 to 15 days
[8] = 250 g ai/ha, scale of 0 to 100 where 0 is no effect and 100 is complete control, 13 to 15 days
[9] = 125 g ai/ha, 0 to 100 scale, 0 is no effect, 100 is complete control
[10] = Preemergence, 62 g ai/ha, scale 0 to 100
[11] = Preemergence, 125 g ai/ha, scale 0 to 100 (0 no effect, 100 complete control)
[12] = Postemergence, 125 g ai/ha, 0 to 100 scale, 0 no effect, 100 complete control
[13] = Postemergence, 500 g ai/ha, 0 to 100 scale (0 no effect, 100 complete control)
[14] = preemergence, 500 g ai/ha, 0 to 100 scale
[15] = 31 g ai/ha, scale of 0 to 100 where 0 is no effect and 100 is complete control, 13 to 15 days
[16] = 62 g ai/ha, scale of 0 to 100 where 0 is no effect and 100 is complete control, 13 to 15 days
[17] = 125 g ai/ha, visual rating on 0 to 100 scale (0 no effect, 100 complete control), approx. 10 days
[18] = 500 g ai/ha, 0 to 100 scale (0 no effect, 100 complete control)
[19] = Postemergence, 125 g ai/ha, visual rating on 0 to 100 scale (0 no effect, 100 complete control), approx. 10 days
[20] = Preemergence, 125 g ai/ha, 0 to 100 scale where 0 is no effect and 100 is complete control
[21] = Preemergence, 500 g ai/ha, visual rating on 0 to 100 scale (0 no effect, 100 complete control)

SMILES	Plant response rating, Kochia (kochia [1]; [3])	Plant response rating, Kochia (kochia [1]; [4])	Plant response rating, Kochia (kochia [1]; [5])	Plant response rating, Rice (rice; [7])	Plant response rating, Rice (rice; [8])	Plant response rating, Ducksalad (ducksalad; [7])	Plant response rating, Ducksalad (ducksalad; [8])	Plant response rating, Barnyardgrass (barnyardgrass; [7])	Plant response rating, Barnyardgrass (barnyardgrass; [8])	Plant response rating, Kochia (kochia [1]; [10])	Plant response rating, Kochia (kochia [1]; [11])	Plant response rating, Velvetleaf (velvetleaf; [12])	Plant response rating, Velvetleaf (velvetleaf; [13])	Velvetleaf plant response rating (velvetleaf; 125 g ai/ha)	Plant response rating, Velvetleaf (velvetleaf; [14])	Plant response rating, Rice (rice; [15])	Plant response rating, Rice (rice; [16])	Plant response rating, Ducksalad (ducksalad; [15])	Plant response rating, Ducksalad (ducksalad; [16])	Plant response rating, Galium (galium; [17])	other results
Cc1c(F)cccc1NC(=O)C1C(=O)NCC1c1ccc(F)c(F)c1 (racemic) [Compound 106]	0	40	30																		Plant response rating, Kochia (kochia [1]; [6]): 35; Plant response rating, Velvetleaf (velvetleaf; Postemergence, 1000 g ai/ha, 0 to 100 scale (0 no effect, 100 complete control)): 40; Plant response rating, Velvetleaf (velvetleaf; preemergence, 1000 g ai/ha, 0 to 100 scale): 0
O=C1NCC(c2cccc(C(F)F)c2)C1C(=O)Nc1ccccc1F (racemic) [Compound 210]				0	0	0	80	0	45												Plant response rating, Rice (rice; 500 g ai/ha, scale 0 to 100): 0; Plant response rating, Rice (rice; 1000 g ai/ha, scale 0 to 100): 0; Plant response rating, Ducksalad (ducksalad; 500 g ai/ha, scale 0 to 100): 100; Plant response rating, Ducksalad (ducksalad; 1000 g ai/ha, scale 0 to 100): 100; Plant response rating, Galium (galium; [9]): 30; Galium plant response rating (0 to 100 scale, 0 is no effect, 100 is complete control) (galium; 500 g ai/ha): 60; Plant response rating, Kochia (kochia [2]; 125 g ai/ha, visual rating, 0 to 100 scale, 0 no effect, 100 complete control, approximately 10 days, preemergence): 0; Plant response rating, Kochia (kochia [2]; Postemergence, 125 g ai/ha, 0 to 100 scale, 0 is no effect, 100 is complete control): 20; Kochia plant response rating (0 to 100 scale, 0 is no effect, 100 is complete control) (kochia [2]; Postemergence, 500 g ai/ha): 60; Plant response rating, Kochia (kochia [2]; preemergence, 500 g ai/ha, 0 to 100 scale, 0 is no effect and 100 is complete control): 30; Plant response rating, Blackgrass (blackgrass; [9]): 30; Blackgrass plant response rating (0 to 100 scale, 0 is no effect, 100 is complete control) (blackgrass; 500 g ai/ha): 60; Plant response rating, Barnyardgrass (barnyardgrass; 500 g ai/ha, scale 0 to 100): 70; Plant response rating, Barnyardgrass (barnyardgrass; 1000 g ai/ha, scale 0 to 100): 75
O=C1NCC(c2cc(F)c(F)c(F)c2)C1C(=O)Nc1cccc(F)c1F (centres unmarked) [Compound 48]	10	10	20							10	10	0	20	0	0						Plant response rating, Kochia (kochia [1]; Postemergence, 16 g ai/ha, scale 0 to 100 (0 no effect, 100 complete control)): 0; Plant response rating, Kochia (kochia [1]; Preemergence, 16 g ai/ha, scale 0 to 100): 0
O=C1NCC(c2cc(F)c(F)cc2F)C1C(=O)Nc1cccc(F)c1F (centres unmarked) [Compound 50]	0	0	0									0	0	0	0						Plant response rating, Kochia (kochia [1]; [6]): 0
O=C1NCC(c2ccc(F)c(Cl)c2)C1C(=O)Nc1ccccc1F (centres unmarked) [Compound 60]	0	10	45							0	0	0	0	0	0						
O=C1NCC(c2cccc(OC(F)(F)F)c2)C1C(=O)Nc1ccccc1F (centres unmarked) [Compound 69]										0	0	20	30	0	0						Kochia plant response rating (kochia [1]; Preemergence, 31 g ai/ha, scale 0 to 100, 0 is no effect and 100 is complete control): 0; Plant response rating (scale of 0 to 100), Kochia (kochia [1]; Preemergence, 250 g ai/ha): 25
CN1CC(c2ccc(F)c(F)c2)C(C(=O)Nc2cccc(F)c2F)C1=O (centres unmarked) [Compound 303]				0	0	70	100	60	70							0	0	50	60	60	Plant response rating, Galium (galium; [18]): 70; Plant response rating, Kochia (kochia [2]; [19]): 50; Plant response rating, Kochia (kochia [2]; [13]): 80; Plant response rating, Kochia (kochia [2]; [20]): 70; Kochia plant response rating (kochia [2]; [21]): 80; Plant response rating, Blackgrass (blackgrass; [17]): 60; Plant response rating, Blackgrass (blackgrass; [18]): 70; Plant response rating, Barnyardgrass (barnyardgrass; [15]): 0; Plant response rating, Barnyardgrass (barnyardgrass; [16]): 20
CC(C)c1cccc(C2CNC(=O)C2C(=O)Nc2ccccc2F)c1 (centres unmarked) [Compound 318]				10	15	100	100	60	70							0	0	50	60	30	Plant response rating, Galium (galium; [18]): 40; Plant response rating, Kochia (kochia [2]; [19]): 20; Plant response rating, Kochia (kochia [2]; [13]): 30; Plant response rating, Kochia (kochia [2]; [20]): 20; Kochia plant response rating (kochia [2]; [21]): 70; Plant response rating, Blackgrass (blackgrass; [17]): 30; Plant response rating, Blackgrass (blackgrass; [18]): 40; Plant response rating, Barnyardgrass (barnyardgrass; [15]): 20; Plant response rating, Barnyardgrass (barnyardgrass; [16]): 30
O=C1NCC(c2cccc(OC(F)F)c2)C1C(=O)Nc1ccccc1F (centres unmarked) [Compound 323]				0	30	90	100	50	65							0	0	50	75	40	Plant response rating, Galium (galium; [18]): 60; Plant response rating, Kochia (kochia [2]; [19]): 40; Plant response rating, Kochia (kochia [2]; [13]): 90; Plant response rating, Kochia (kochia [2]; [20]): 50; Kochia plant response rating (kochia [2]; [21]): 80; Plant response rating, Blackgrass (blackgrass; [17]): 40; Plant response rating, Blackgrass (blackgrass; [18]): 60; Plant response rating, Barnyardgrass (barnyardgrass; [15]): 25; Plant response rating, Barnyardgrass (barnyardgrass; [16]): 45
